The results in this text go back to patent US20230159527A1, “COMPOUNDS AS BCL-2 INHIBITORS” (Fochon Pharmaceuticals, Ltd., priority 2020, published 2023).

Molecules are shown by their SMILES.

Assay [1] relates to RS4;11 cells. In words: Cell proliferation assay, RS4;11 cells (MTS, 72 h). In kind it is cell-based. As to conditions: Homo sapiens, RS4;11 cell proliferation. Here is the method: MTS testing kit was purchased from Promega. The RPMI-1640, Fetal bovine serum and Penicillin-Streptomycin were purchased from Gibco. Dimethyl sulfoxide (DMSO) was purchased from Sigma.
To investigate whether a compound is able to inhibit the activity of Bcl-2 in cells, a mechanism-based assay using RS4;11 (ATCC® CRL-1873™) cell was developed. In this assay, inhibition of Bcl-2 was detected by the inhibition of RS4;11 cells proliferation. RS4;11 cells were cultured in culture flasks to 40-80% confluence in RPMI-1640 plus 10% fetal bovine serum. Cells were collected and plated onto 96-well plates at desired cell density (30000 cells/well). Plates were incubated overnight at 37° C., with 5% CO2 to adhere. Compounds were added to the plates, and the final compound concentrations were 10000, 3333, 1111, […], 41, 14, 4.6 and 1.5 nM. Plates plated with RS4;11 cells were placed at 37° C., with 5% CO2 for 72 h. 20 μl MTS/100 μl medium mixture solution were added to each well and incubate the plates for exactly 2 hours. The reaction was stopped by adding 25 μl 10% SDS per well. Measure absorbance at 490 nm and 650 nm (reference wavelength). IC50 was calculated using GraphPad Prism 5.0.

Assay [2] relates to DoHH2 cells. In words: Cell proliferation assay, DoHH2 cells (MTS, 120 h). In kind it is cell-based. As to conditions: Homo sapiens, DOHH-2. In short, it runs like this: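 DoHH2 cells in RPMI-1640 with 10% FBS were plated at 5000/well and rested 4 h. They were then exposed to compound at nine final concentrations (10000 to 1.5 nM) for 120 h at 37 °C. Viability was read by MTS (2 h, A490) and IC50 derived by curve fitting.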

For orientation: IC50 means the concentration that inhibits the measured activity by half. In the case of `CC(C)c1ccccc1[C@H]1CCCN1C1CC2(CCN(c3ccc(C(=O)NS(=O)(=O)c4cc([N+](=O)[O-])c5c(n4)OC[C@H](Cc4ccccc4)N5)c(Oc4cnc5[nH]ccc5c4)c3)CC2)C1` [Example B-3b, 2-((1H-pyrrolo[2,3-b]pyridin-5-yl)oxy)-N-(((S)-2-benzyl-8-nitro-2,3-dihydro-1H-pyrido[2,3-b][1,4]oxazin-6-yl)sulfonyl)-4-(2-((R)-2-(2-isopropylphenyl)pyrrolidin-1-yl)-7-azaspiro[3.5]nonan-7-yl) benzamide], the IC50 in assay [1] and in assay [2] was at most 1 nM in each case.
Consider `CCS(=O)(CC)=NC1CCC(CNc2ncc(S(=O)(=O)NC(=O)c3ccc(N4CCC5(CC4)CC(N4CCC[C@@H]4c4ccccc4C4CC4)C5)cc3Oc3cnc4[nH]ccc4c3)cc2[N+](=O)[O-])CC1` (stereo partly drawn) [Example A-2b, (R)-2-((1H-pyrrolo[2,3-b]pyridin-5-yl)oxy)-4-(2-(2-(2-cyclopropylphenyl)pyrrolidin-1-yl)-7-azaspiro[3.5]nonan-7-yl)-N-((6-(((4-((diethyl(oxo)-λ^6-sulfanylidene)amino)cyclohexyl)methyl)amino)-5-nitropyridin-3-yl)sulfonyl)benzamide], for which the IC50 in assay [1] and in assay [2] was at most 1 nM each time.
`O=C(NS(=O)(=O)c1cnc(NCC2CCC(N=S3(=O)CCOCC3)CC2)c([N+](=O)[O-])c1)c1ccc(N2CCC3(CC2)CC(N2CCC[C@@H]2c2ccccc2C2CC2)C3)cc1Oc1cnc2[nH]ccc2c1` (stereo partly drawn) [Example A-23b, (R)-2-((1H-pyrrolo[2,3-b]pyridin-5-yl)oxy)-4-(2-(2-(2-cyclopropyl-phenyl)pyrrolidin-1-yl)-7-azaspiro [3.5]nonan-7-yl)-N-((5-nitro-6-(((4-((4-oxido-1,4λ^6-oxathian-4-ylidene)amino)cyclohexyl)methyl)amino)pyridin-3-yl)sulfonyl) benzamide]: the IC50 in assay [1] and in assay [2] was at most 1 nM each time.
As to `CC(C)c1ccccc1[C@@H]1CCCN1C1CC2(CCN(c3ccc(C(=O)NS(=O)(=O)c4cc([N+](=O)[O-])c5c(n4)OC[C@H]([C@H]4CC[C@](C)(O)CC4)N5)c(Oc4cnc5[nH]ccc5c4)c3)CC2)C1` (single isomer, unassigned) [Example B-34, 2-((1H-pyrrolo[2,3-b]pyridin-5-yl)oxy)-N-(((S)-2-((1r,4S)-4-hydroxy-4-methylcyclohexyl)-8-nitro-2,3-dihydro-1H-pyrido[2,3-b] [1,4]oxazin-6-yl)sulfonyl)-4-(2-((R or S)-2-(2-isopropylphenyl)pyrrolidin-1-yl)-7-azaspiro[3.5]nonan-7-yl)benzamide], the IC50 in assay [1] and in assay [2] was at most 1 nM throughout.
As for `CCS(=O)(CC)=NC1CCC(CNc2ncc(S(=O)(=O)NC(=O)c3ccc(N4CCC5(CC4)CC(N4CCC[C@@H]4c4ccccc4C(C)C)C5)cc3Oc3cnc4[nH]ccc4c3)cc2[N+](=O)[O-])CC1` (single isomer, unassigned) [Example A-13b, (R or S)-2-((1H-pyrrolo[2,3-b]pyridin-5-yl)oxy)-N-((6-(((4-((diethyl(oxo)-λ^6-sulfanylidene)amino)cyclohexyl)methyl)amino)-5-nitropyridin-3-yl)sulfonyl)-4-(2-(2-(2-isopropyl-phenyl)pyrrolidin-1-yl)-7-azaspiro [3.5]nonan-7-yl)benzamide], the half-inhibitory concentration (IC50) in assay [1] and in assay [2] was at most 1 nM in each case.
Consider `CCc1ccccc1[C@H]1CCCN1C1CC2(CCN(c3ccc(C(=O)NS(=O)(=O)c4cnc(NCC5CCC(N=S6(=O)CCOCC6)CC5)c([N+](=O)[O-])c4)c(Oc4cnc5[nH]ccc5c4)c3)CC2)C1` (stereo partly drawn) [Example A-21b, (R)-2-((1H-pyrrolo[2,3-b]pyridin-5-yl)oxy)-4-(2-(2-(2-ethylphenyl)pyrrolidin-1-yl)-7-azaspiro[3.5]nonan-7-yl)-N-((5-nitro-6-(((4-((4-oxido-1,4λ^6-oxathian-4-ylidene)amino)cyclohexyl)methyl)amino)pyridin-3-yl)sulfonyl)benzamide], for which the IC50 in assay [1] and in assay [2] was at most 1 nM in each case.
As to `CC(C)c1ccccc1C1CCCN1C1CC2(CCN(c3ccc(C(=O)NS(=O)(=O)c4cc([N+](=O)[O-])c5c(n4)OC[C@H](C4CCOCC4)N5)c(Oc4cnc5[nH]ccc5c4)c3)CC2)C1` (single isomer, unassigned) [Example B-33, 2-((1H-pyrrolo[2,3-b]pyridin-5-yl)oxy)-4-(2-((R or S)-2-(2-isopropylphenyl)pyrrolidin-1-yl)-7-azaspiro[3.5]nonan-7-yl)-N-(((S)-8-nitro-2-(tetrahydro-2H-pyran-4-yl)-2,3-dihydro-1H-pyrido[2,3-b][1,4]oxazin-6-yl)sulfonyl)benzamide], the IC50 in assay [1] and in assay [2] was at most 1 nM each time.
On to `O=C(NS(=O)(=O)c1cc([N+](=O)[O-])c2c(n1)OC[C@H](Cc1ccccn1)N2)c1ccc(N2CCC3(CC2)CC(N2CCC[C@H]2c2ccccc2C2CC2)C3)cc1Oc1cnc2[nH]ccc2c1` (single isomer, unassigned) [Example B-45, 2-((1H-pyrrolo[2,3-b]pyridin-5-yl)oxy)-4-(2-((R or S)-2-(2-cyclopropylphenyl)pyrrolidin-1-yl)-7-azaspiro[3.5]nonan-7-yl)-N-(((S)-8-nitro-2-(pyridin-2-ylmethyl)-2,3-dihydro-1H-pyrido [2,3-b][1,4]oxazin-6-yl)sulfonyl) benzamide], for which the IC50 in assay [1] and in assay [2] was at most 1 nM in each case.
Consider `CC(C)c1ccccc1[C@H]1CCCN1C1CC2(CCN(c3ccc(C(=O)NS(=O)(=O)c4cnc(NCC5CCC(N=S(C)(C)=O)CC5)c([N+](=O)[O-])c4)c(Oc4cnc5[nH]ccc5c4)c3)CC2)C1` (stereo partly drawn) [Example A-10b, (R)-2-((1H-pyrrolo[2,3-b]pyridin-5-yl)oxy)-N-((6-(((4-((dimethyl (oxo)-λ^6-sulfanylidene)amino)cyclo-hexyl)methyl)amino)-5-nitropyridin-3-yl)sulfonyl)-4-(2-(2-(2-isopropyl-phenyl)pyrrolidin-1-yl)-7-azaspiro [3.5]nonan-7-yl)benzamide], for which the half-maximal inhibitory concentration (IC50) in assay [1] and in assay [2] was at most 1 nM each time.
As for `O=C(NS(=O)(=O)c1cnc(NCC2(F)CCOCC2)c([N+](=O)[O-])c1)c1ccc(N2CCC3(CC2)CC(N2CCC[C@H]2c2ccccc2C2CC2)C3)cc1Oc1cnc2[nH]ccc2c1` [Example A-32a, (S)-2-((1H-pyrrolo[2,3-b]pyridin-5-yl)oxy)-4-(2-(2-(2-cyclopropyl-phenyl)pyrrolidin-1-yl)-7-azaspiro [3.5]nonan-7-yl)-N-((6-(((4-fluoro-tetrahydro-2H-pyran-4-yl)methyl)amino)-5-nitropyridin-3-yl)sulfonyl)benzamide], the IC50 in assay [1] and in assay [2] was at most 1 nM each time.
Consider `O=C(NS(=O)(=O)c1cnc(NCC2CCOCC2)c([N+](=O)[O-])c1)c1ccc(N2CCC3(CC2)CC(N2CCOC[C@H]2c2ccccc2C2CC2)C3)cc1Oc1cnc2[nH]ccc2c1` (single isomer, unassigned) [Example A-75, (R or S)-2-((1H-pyrrolo[2,3-b]pyridin-5-yl)oxy)-4-(2-(3-(2-cyclopropyl-phenyl)morpholino)-7-azaspiro[3.5]nonan-7-yl)-N-((5-nitro-6-(((tetra-hydro-2H-pyran-4-yl)methyl)amino)pyridin-3-yl)sulfonyl) benzamide], for which the IC50 in assay [1] and in assay [2] was at most 1 nM in each case.
In the case of `CC(C)c1ccccc1[C@@H]1COCCN1C1CC2(CCN(c3ccc(C(=O)NS(=O)(=O)c4cc([N+](=O)[O-])c5c(n4)OC[C@H]([C@H]4CC[C@](C)(O)CC4)N5)c(Oc4cnc5[nH]ccc5c4)c3)CC2)C1` (single isomer, unassigned) [Example B-47, 2-((1H-pyrrolo[2,3-b]pyridin-5-yl)oxy)-N-(((S)-2-((1r,4S)-4-hydroxy-4-methylcyclohexyl)-8-nitro-2,3-dihydro-1H-pyrido[2,3-b][1,4]oxazin-6-yl)sulfonyl)-4-(2-((R or S)-3-(2-isopropylphenyl)morpholino)-7-azaspiro[3.5]nonan-7-yl) benzamide], the IC50 in assay [1] and in assay [2] was at most 1 nM each time.
Compound `O=C(NS(=O)(=O)c1cnc(NCC2CCOCC2)c([N+](=O)[O-])c1)c1ccc(N2CCC3(CC2)CC(N2CCNC[C@H]2c2ccccc2C2CC2)C3)cc1Oc1cnc2[nH]ccc2c1` (single isomer, unassigned) [Example A-36a, (R or S)-2-((1H-pyrrolo[2,3-b]pyridin-5-yl)oxy)-4-(2-(2-(2-cyclopropyl-phenyl)piperazin-1-yl)-7-azaspiro [3.5]nonan-7-yl)-N-((5-nitro-6-(((tetrahydro-2H-pyran-4-yl)methyl)amino)pyridin-3-yl)sulfonyl) benzamide] displayed an IC50 in assay [1] of at most 1 nM.
The same measure, in the same setting: next, `CS(C)(=O)=NC1CCC(CNc2ncc(S(=O)(=O)NC(=O)c3ccc(N4CCC5(CC4)CC(N4CCC[C@@H]4c4ccccc4C4CC4)C5)cc3Oc3cnc4[nH]ccc4c3)cc2[N+](=O)[O-])CC1` (single isomer, unassigned) [Example A-9b, (R or S)-2-((1H-pyrrolo[2,3-b]pyridin-5-yl)oxy)-4-(2-(2-(2-cyclopropyl-phenyl)pyrrolidin-1-yl)-7-azaspiro [3.5]nonan-7-yl)-N-((6-(((4-((dimethyl(oxo)-λ^6-sulfanylidene)amino)cyclohexyl)methyl)amino)-5-nitropyridin-3-yl)sulfonyl)benzamide]: at most 1 nM.
